Experimental data: PubChem BioAssay AID1259407 (Chemical Carcinogenesis Research Information System (CCRIS), 2018)
Active and inactive are the calls of the source. No rule for the calls is given here.

System: CCRIS mutagenicity, Ames/micronucleus/aberration tests
Experiment: CCRIS mutagenicity studies
[1] = Test System: AMES SALMONELLA TYPHIMURIUM, Strain/Indicator: TA98, Metabolic Activation: NONE, Method: STANDARD PLATE
[2] = Test System: AMES SALMONELLA TYPHIMURIUM, Strain/Indicator: TA100, Metabolic Activation: NONE, Method: PREINCUBATION
[3] = Test System: AMES SALMONELLA TYPHIMURIUM, Strain/Indicator: TA100, Metabolic Activation: NONE, Method: STANDARD PLATE
[4] = Test System: AMES SALMONELLA TYPHIMURIUM, Strain/Indicator: TA98, Metabolic Activation: NONE, Method: PREINCUBATION
[5] = Test System: AMES SALMONELLA TYPHIMURIUM, Strain/Indicator: TA98, Metabolic Activation: RAT, LIVER, S-9, AROCLOR 1254, Method: PREINCUBATION
[6] = Test System: AMES SALMONELLA TYPHIMURIUM, Strain/Indicator: TA100, Metabolic Activation: RAT, LIVER, S-9, AROCLOR 1254, Method: PREINCUBATION

Compound: N#CC(Cl)Cl
- mutagenic call [1]: active; positive
- mutagenic call (Test System: AMES SALMONELLA TYPHIMURIUM, Strain/Indicator: TA98, Metabolic Activation: RAT, LIVER, S-9, AROCLOR 1254, Method: STANDARD PLATE): active; positive
- mutagenic call (Test System: AMES SALMONELLA TYPHIMURIUM, Strain/Indicator: TA98, Metabolic Activation: RAT, LIVER, S-9, PHENOBARBITAL AND 5,6-BENZOFLAVONE, Method: PREINCUBATION): inactive; negative
- mutagenic call (Test System: AMES SALMONELLA TYPHIMURIUM, Strain/Indicator: TA100, Metabolic Activation: NONE, Method: FLUCTUATION TEST): active; positive
- mutagenic call [2]: active; positive
- mutagenic call [3]: active; positive
- mutagenic call (Test System: AMES SALMONELLA TYPHIMURIUM, Strain/Indicator: TA100, Metabolic Activation: RAT, LIVER, S-9, AROCLOR 1254, Method: FLUCTUATION TEST): active; positive
- mutagenic call (Test System: AMES SALMONELLA TYPHIMURIUM, Strain/Indicator: TA100, Metabolic Activation: RAT, LIVER, S-9, AROCLOR 1254, Method: STANDARD PLATE): active; positive
- mutagenic call (Test System: AMES SALMONELLA TYPHIMURIUM, Strain/Indicator: TA100, Metabolic Activation: RAT, LIVER, S-9, PHENOBARBITAL AND 5,6-BENZOFLAVONE, Method: PREINCUBATION): active; positive
- mutagenic call (Test System: AMES SALMONELLA TYPHIMURIUM, Strain/Indicator: TA1535, Metabolic Activation: NONE, Method: STANDARD PLATE): active; positive
- mutagenic call (Test System: AMES SALMONELLA TYPHIMURIUM, Strain/Indicator: TA1535, Metabolic Activation: RAT, LIVER, S-9, AROCLOR 1254, Method: STANDARD PLATE): active; positive

Compound: Cc1ccc2c(c1O)C(=O)c1ccccc1C2=O
- mutagenic call [4]: inactive; negative
- mutagenic call (Test System: AMES SALMONELLA TYPHIMURIUM, Strain/Indicator: TA98, Metabolic Activation: RAT, LIVER, S-9, PCB, Method: PREINCUBATION): active; positive
- mutagenic call [2]: inactive; negative
- mutagenic call (Test System: AMES SALMONELLA TYPHIMURIUM, Strain/Indicator: TA100, Metabolic Activation: RAT, LIVER, S-9, PCB, Method: PREINCUBATION): active; positive

Compound: CC1(C)CCCC(C)(C)N1[O]
- mutagenic call [1]: inactive; negative
- mutagenic call [3]: inactive; negative
- mutagenic call (Test System: AMES SALMONELLA TYPHIMURIUM, Strain/Indicator: TA102, Metabolic Activation: NONE, Method: STANDARD PLATE): inactive; negative

Compound: CSC1=N[C@@](C)(c2ccccc2)C(=O)N1Nc1ccccc1
- mutagenic call (End Point: In vitro chromosomal aberrations, Test System: Human peripheral blood lymphocytes, Metabolic Activation: None): active; positive
- mutagenic call (End Point: In vitro chromosomal aberrations, Test System: Human peripheral blood lymphocytes, Metabolic Activation: S-9): active; positive
- mutagenic call (End Point: In vivo micronucleus, Test System: Bone marrow polychromatic erythrocytes, Species: Mouse, Strain/Sex: CD-1/Male and female, Route: Intraperitoneal): inactive; negative
- mutagenic call (End Point: UDS, Test System: Rat hepatocytes, Species: Wistar/Male, Method: Autoradiography): inactive; negative. (higher doses too toxic to score)
- mutagenic call (Test System: Ames Salmonella typhimurium, Strain/Indicator: TA98, Metabolic Activation: None, Method: Plate incorporation and preincubation): inactive; negative
- mutagenic call (Test System: Ames Salmonella typhimurium, Strain/Indicator: TA98, Metabolic Activation: Rat, Liver, S-9, Method: Plate incorporation and preincubation): inactive; negative
- mutagenic call (Test System: Ames Salmonella typhimurium, Strain/Indicator: TA100, Metabolic Activation: None, Method: Plate incorporation and preincubation): inactive; negative
- mutagenic call (Test System: Ames Salmonella typhimurium, Strain/Indicator: TA100, Metabolic Activation: Rat, Liver, S-9, Method: Plate incorporation and preincubation): inactive; negative
- mutagenic call (Test System: Ames Salmonella typhimurium, Strain/Indicator: TA102, Metabolic Activation: None, Method: Plate incorporation and preincubation): inactive; negative
- mutagenic call (Test System: Ames Salmonella typhimurium, Strain/Indicator: TA102, Metabolic Activation: Rat, Liver, S-9, Method: Plate incorporation and preincubation): inactive; negative
- mutagenic call (Test System: Ames Salmonella typhimurium, Strain/Indicator: TA1535, Metabolic Activation: None, Method: Plate incorporation and preincubation): inactive; negative
- mutagenic call (Test System: Ames Salmonella typhimurium, Strain/Indicator: TA1535, Metabolic Activation: Rat, Liver, S-9, Method: Plate incorporation and preincubation): inactive; negative
- mutagenic call (Test System: Ames Salmonella typhimurium, Strain/Indicator: TA1537, Metabolic Activation: None, Method: Plate incorporation and preincubation): inactive; negative
- mutagenic call (Test System: Ames Salmonella typhimurium, Strain/Indicator: TA1537, Metabolic Activation: Rat, Liver, S-9, Method: Plate incorporation and preincubation): inactive; negative
- mutagenic call (Test System: Mouse lymphoma, Strain/Indicator: L5178Y (tk+/tk-), Metabolic Activation: None, Method: Microtiter fluctuation): inactive; negative
- mutagenic call (Test System: Mouse lymphoma, Strain/Indicator: L5178Y (tk+/tk-), Metabolic Activation: S-9, Method: Microtiter fluctuation): active; positive. (increase in small colony mutant frequency indicates clastogenicity)

Compound: CN(N=O)C(=O)Nc1ccccc1
- mutagenic call (End Point: IN VITRO CHROMOSOMAL ABERRATIONS, Test System: CHINESE HAMSTER V79-E CELLS, Metabolic Activation: NONE): active; positive (structural changes)

Compound: O=C(Oc1ccccc1)c1ccccc1O
- mutagenic call (Test System: AMES SALMONELLA TYPHIMURIUM, Strain/Indicator: TA98, Metabolic Activation: HAMSTER, LIVER, S-9, AROCLOR 1254 (10%), Method: PREINCUBATION): inactive; negative
- mutagenic call [4]: inactive; negative
- mutagenic call (Test System: AMES SALMONELLA TYPHIMURIUM, Strain/Indicator: TA98, Metabolic Activation: RAT, LIVER, S-9, AROCLOR 1254 (10%), Method: PREINCUBATION): inactive; negative
- mutagenic call (Test System: AMES SALMONELLA TYPHIMURIUM, Strain/Indicator: TA100, Metabolic Activation: HAMSTER, LIVER, S-9, AROCLOR 1254 (10%), Method: PREINCUBATION): inactive; negative
- mutagenic call [2]: inactive; negative
- mutagenic call (Test System: AMES SALMONELLA TYPHIMURIUM, Strain/Indicator: TA100, Metabolic Activation: RAT, LIVER, S-9, AROCLOR 1254 (10%), Method: PREINCUBATION): inactive; negative
- mutagenic call (Test System: AMES SALMONELLA TYPHIMURIUM, Strain/Indicator: TA1535, Metabolic Activation: HAMSTER, LIVER, S-9, AROCLOR 1254 (10%), Method: PREINCUBATION): inactive; negative
- mutagenic call (Test System: AMES SALMONELLA TYPHIMURIUM, Strain/Indicator: TA1535, Metabolic Activation: NONE, Method: PREINCUBATION): inactive; negative
- mutagenic call (Test System: AMES SALMONELLA TYPHIMURIUM, Strain/Indicator: TA1535, Metabolic Activation: RAT, LIVER, S-9, AROCLOR 1254 (10%), Method: PREINCUBATION): inactive; negative
- mutagenic call (Test System: AMES SALMONELLA TYPHIMURIUM, Strain/Indicator: TA1537, Metabolic Activation: HAMSTER, LIVER, S-9, AROCLOR 1254 (10%), Method: PREINCUBATION): inactive; negative
- mutagenic call (Test System: AMES SALMONELLA TYPHIMURIUM, Strain/Indicator: TA1537, Metabolic Activation: NONE, Method: PREINCUBATION): inactive; negative
- mutagenic call (Test System: AMES SALMONELLA TYPHIMURIUM, Strain/Indicator: TA1537, Metabolic Activation: RAT, LIVER, S-9, AROCLOR 1254 (10%), Method: PREINCUBATION): inactive; negative

Compound: COc1cc(NS(C)(=O)=O)ccc1Nc1c2ccccc2nc2ccc(N=[N+]=[N-])cc12
- mutagenic call (Test System: AMES SALMONELLA TYPHIMURIUM, Strain/Indicator: TA1537, Metabolic Activation: NONE, Method: STANDARD PLATE): active; positive

Compound: [Pt+2].[S-]CCCCl.[S-]CCCCl
- mutagenic call (Test System: AMES SALMONELLA TYPHIMURIUM, Strain/Indicator: TA92, Metabolic Activation: NONE, Method: STANDARD PLATE): inactive; negative
- mutagenic call [1]: inactive; negative
- mutagenic call [3]: active; positive
- mutagenic call (Test System: AMES SALMONELLA TYPHIMURIUM, Strain/Indicator: TA2410, Metabolic Activation: NONE, Method: STANDARD PLATE): active; positive

Compound: Cc1cc2c(nc1N)[nH]c1ccccc12
- mutagenic call [5]: active; positive
- mutagenic call [6]: active; positive
- mutagenic call (Test System: AMES SALMONELLA TYPHIMURIUM, Strain/Indicator: YG1019, Metabolic Activation: RAT LIVER S-9, AROCLOR, Method: PREINCUBATION): active; positive

Compound: CC(O)c1cc2ccc3cccc4ccc(c1)c2c34 (centres undefined)
- mutagenic call (Test System: AMES SALMONELLA TYPHIMURIUM, Strain/Indicator: TA98, Metabolic Activation: HUMAN, LIVER, CYTOSOL, PAPS, Method: PREINCUBATION): active; positive

Compound: O=c1c(=O)c2c([N+](=O)[O-])ccc3ccc4cccc1c4c32
- mutagenic call [4]: active; positive
- mutagenic call [5]: active; positive
- mutagenic call [2]: active; positive
- mutagenic call [6]: active; positive

Compound: O=c1cccc2c1ccc1[nH]c3ccc4ccccc4c3cc12
- mutagenic call (Test System: AMES SALMONELLA TYPHIMURIUM, Strain/Indicator: TA100, Metabolic Activation: GUINEA PIG, LIVER, S-9, 3-METHYLCHOLANTHRENE, Method: STANDARD PLATE): inactive; negative
- mutagenic call (Test System: CHINESE HAMSTER V-79, Strain/Indicator: V-79/6-THIOGUANINE, Metabolic Activation: GUINEA PIG, LIVER, S-9, 3-METHYLCHOLANTHRENE): inactive; negative

Compound: Cc1cccc(N=O)c1
- mutagenic call [5]: inactive; negative

Compound: O=c1c(O)c2c(c3c1ccc1c3cccn1O)O2
- mutagenic call [3]: inactive; negative
